Data reported in patent US20240165097A1, “PHARMACEUTICAL COMPOSITION FOR THE TREATMENT OF ALZHEIMER'S DISEASE OR DEMENTIA” (Heptares Therapeutics Limited, priority 2021, published 2024).
“And” between values parts separate entries of the source, which are not always exact repeats. Equal entries are not always repeated. Where two headings read alike, the source gives them in different places.

Tested on: healthy elderly subjects
[1] = 15 mg HTL0018318 + donepezil vs Placebo
[2] = 15 mg HTL0018318 alone vs 15 mg HTL0018318 donepezil
[3] = 15 mg HTL0018318 alone vs Placebo
[4] = 15 mg and 25 mg, in combination with or without donepezil
[5] = 15 mg in combination with donepezil
[6] = 15 mg in combination with donepezil (5 days)
[7] = 15 mg without donepezil (5 days)
[8] = 25 mg HTL0018318 + donepezil vs Placebo
[9] = 25 mg HTL0018318 alone vs 25 mg HTL0018318 donepezil
[10] = 25 mg HTL0018318 alone vs Placebo
[11] = 25 mg in combination with donepezil
[12] = 25 mg in combination with donepezil (5 days)
[13] = 25 mg without donepezil (5 days)
[14] = 25 mg without donepezil vs in combination with donepezil

Experimental: The study was run in three cohorts to allow within study modification of the dose of HTL0018318 in the event that an unexpected interaction occurred.
HTL0018318 was administered orally as an aqueous solution in 100 ml. Water was used as placebo. To mask the difference in taste between HTL0018318 and placebo, a peppermint strip (Listerine) was administered one minute before and after the administration of the oral solution.
A subset of AEs was created that have a possible relation to increased cholinergic stimulation, being: hyperhidrosis, salivary hypersecretion, hypertension, tachycardia, bradycardia, nausea, diarrhoea, vomiting, constipation, insomnia, dizziness, muscle spasms, hot flush and cold sweat.
Systolic and diastolic blood pressure and pulse rate, all measured in supine and standing position, safety laboratory, electrocardiogram (ECG), and 24-hour Holter ECG were performed.
Saliva production was assessed by measuring the change in weight of three Salivette® dental rolls put into the oral cavity for 3 minutes. Pulmonary function was measured using the Spirostik (Accuramed), a PC-based open spirometry system.
To this end a mixed model analysis of variance was used with treatment, period, time, treatment by period, period by time, treatment by time and treatment by period by time as fixed factors. Subject, subject by period and subject by time were random factors and the pre-HTL0018318 baseline measurement per period was a covariate. In these analysis models, all means are estimated (least square means, LSM). Statistical analysis was conducted with SAS 9.4 for Windows (SAS Institute Inc., Cary, NC, USA). […] Analyses were performed for 15 mg and 25 mg HTL0018318 dose levels separately.

CCOC(=O)N1C2CCC1CC(N1CCC3(CC1)CNC(=O)C3)C2 (stereo not shown) [HTL0018318, ethyl 3-(3-oxo-2,8-diazaspiro[4.5]dec-8-yl)-8-azabicyclo[3.2.1]octane-8-carboxylate]
FEV1/FVC, contrast estimate [1]: 1.052%
FEV 1 second, contrast estimate [1]: 0.043 L
FVC, contrast estimate [1]: 0.03719 L
LSEQ: Awake following sleep, contrast estimate [1]: 3.50
LSEQ: Behaviour after wake, contrast estimate [1]: 1.51
LSEQ: Getting to sleep, contrast estimate [1]: 1.59
LSEQ: Quality of sleep, contrast estimate [1]: 2.42
PEF, contrast estimate [1]: 0.339 L/s
Saliva, contrast estimate [1]: 0.707 g
VAS Alertness, contrast estimate [1]: −0.70 mm
VAS Calmness, contrast estimate [1]: −2.37 mm
VAS Mood, contrast estimate [1]: −0.24 mm
VAS Nausea, contrast estimate [1]: −0.08 log(mm)
FEV1/FVC, contrast estimate [2]: −0.886%
FEV 1 second, contrast estimate [2]: 0.127 L
FVC, contrast estimate [2]: 0.1702 L
LSEQ: Awake following sleep, contrast estimate [2]: −1.93
LSEQ: Behaviour after wake, contrast estimate [2]: −0.85
LSEQ: Getting to sleep, contrast estimate [2]: −0.79
LSEQ: Quality of sleep, contrast estimate [2]: −0.26
PEF, contrast estimate [2]: -0.343 L/s
Saliva, contrast estimate [2]: -0.554 g
VAS Alertness, contrast estimate [2]: −0.46 mm
VAS Calmness, contrast estimate [2]: −0.20 mm
VAS Mood, contrast estimate [2]: −0.03 mm
VAS Nausea, contrast estimate [2]: −0.01 log(mm)
FEV1/FVC, contrast estimate [3]: −0.327%
FEV 1 second, contrast estimate [3]: 0.153 L
FVC, contrast estimate [3]: 0.2035 L
LSEQ: Awake following sleep, contrast estimate [3]: −1.72
LSEQ: Behaviour after wake, contrast estimate [3]: −1.00
LSEQ: Getting to sleep, contrast estimate [3]: 0.82
LSEQ: Quality of sleep, contrast estimate [3]: −5.14
PEF, contrast estimate [3]: 0.282 L/s
Saliva, contrast estimate [3]: 0.498 g
VAS Alertness, contrast estimate [3]: −1.96 mm
VAS Calmness, contrast estimate [3]: −3.17 mm
VAS Mood, contrast estimate [3]: −2.93 mm
VAS Nausea, contrast estimate [3]: −0.06 log(mm)
number of AEs in gastrointestinal disorders class, viral gastroenteritis AEs excluded (15 mg alone): 1 AE
supine pulse rate compared with placebo [4]: no significant effects
supine systolic blood pressure compared with placebo [4]: no significant effects
cholinergic AEs, percentage of subjects [5]: 13%
nausea reports, viral gastroenteritis AEs excluded [5]: one subject
supine pulse rate [5]: 64 bpm
All AEs, percentage of subjects [6]: 50% ( 4/8 subjects)
Gastrointestinal disorders, percentage of subjects [6]: 13% (⅛ subjects)
Neurological disorders, percentage of subjects [6]: 13% (⅛ subjects)
supine pulse rate, mean difference (15 mg in combination with donepezil vs without donepezil): 3.3 bpm
cholinergic AEs, percentage of subjects (15 mg without donepezil): 0%
supine pulse rate (15 mg without donepezil): 67 bpm
All AEs, percentage of subjects [7]: 43% ( 3/7 subjects)
Gastrointestinal disorders, percentage of subjects [7]: 14% ( 1/7 subjects)
Neurological disorders, percentage of subjects [7]: 14% ( 1/7 subjects)
delta pulse rate (15 mg without donepezil vs in combination with donepezil): no significant changes
number of AEs in gastrointestinal disorders class, viral gastroenteritis AEs excluded (15 mg+donepezil): 3 AEs
FEV1/FVC, contrast estimate [8]: −0.399%
FEV 1 second, contrast estimate [8]: 0.085 L
FVC, contrast estimate [8]: 0.1784 L
LSEQ: Awake following sleep, contrast estimate [8]: 0.52
LSEQ: Behaviour after wake, contrast estimate [8]: −0.80
LSEQ: Getting to sleep, contrast estimate [8]: −0.74
LSEQ: Quality of sleep, contrast estimate [8]: −1.37
PEF, contrast estimate [8]: 0.273 L/s
Saliva, contrast estimate [8]: 0.910 g
VAS Alertness, contrast estimate [8]: −1.49 mm
VAS Calmness, contrast estimate [8]: −1.67 mm
VAS Mood, contrast estimate [8]: −0.38 mm
VAS Nausea, contrast estimate [8]: −0.04 log(mm)
FEV1/FVC, contrast estimate [9]: 2.491%
FEV 1 second, contrast estimate [9]: 0.008 L
FVC, contrast estimate [9]: -.11255 L
LSEQ: Awake following sleep, contrast estimate [9]: 0.93
LSEQ: Behaviour after wake, contrast estimate [9]: 1.86
LSEQ: Getting to sleep, contrast estimate [9]: 1.72
LSEQ: Quality of sleep, contrast estimate [9]: 6.49
PEF, contrast estimate [9]: 0.047 L/s
Saliva, contrast estimate [9]: -0.349 g
VAS Alertness, contrast estimate [9]: 0.66 mm
VAS Calmness, contrast estimate [9]: −0.07 mm
VAS Mood, contrast estimate [9]: 0.55 mm
VAS Nausea, contrast estimate [9]: −0.03 log(mm)
FEV1/FVC, contrast estimate [10]: 1.600%
FEV 1 second, contrast estimate [10]: 0.077 L
FVC, contrast estimate [10]: 0.06192 L
LSEQ: Awake following sleep, contrast estimate [10]: −1.85
LSEQ: Behaviour after wake, contrast estimate [10]: −0.60
LSEQ: Getting to sleep, contrast estimate [10]: 1.01
LSEQ: Quality of sleep, contrast estimate [10]: −2.18
PEF, contrast estimate [10]: 0.606 L/s
Saliva, contrast estimate [10]: 0.906 g
VAS Alertness, contrast estimate [10]: −1.63 mm
VAS Calmness, contrast estimate [10]: −2.34 mm
VAS Mood, contrast estimate [10]: −2.49 mm
VAS Nausea, contrast estimate [10]: −0.05 log(mm)
number of AEs in gastrointestinal disorders class, viral gastroenteritis AEs excluded (25 mg alone): 3 AEs
cholinergic AEs, percentage of subjects [11]: 69%
delta pulse rate (standing from supine) [11]: 12 bpm and 10 bpm
supine pulse rate [11]: 64 bpm
supine systolic blood pressure [11]: 120 mm Hg
All AEs, percentage of subjects [12]: 88% ( 14/16 subjects)
Gastrointestinal disorders, percentage of subjects [12]: 25% ( 4/16 subjects)
Neurological disorders, percentage of subjects [12]: 38% ( 6/16 subjects)
delta pulse rate, mean difference (25 mg in combination with donepezil vs placebo in combination with donepezil): −3.4 bpm
supine pulse rate, mean difference (25 mg in combination with donepezil vs without donepezil): 1.5 bpm
cholinergic AEs, percentage of subjects (25 mg without donepezil): 67%
delta pulse rate (standing from supine) (25 mg without donepezil): 10 bpm and 12 bpm
supine pulse rate (25 mg without donepezil): 66 bpm
supine systolic blood pressure (25 mg without donepezil): 118 mm Hg
All AEs, percentage of subjects [13]: 92% ( 11/12 subjects)
Gastrointestinal disorders, percentage of subjects [13]: 17% ( 2/12 subjects)
Neurological disorders, percentage of subjects [13]: 50% ( 6/12 subjects)
delta pulse rate, mean difference [14]: −1.6 bpm
supine systolic blood pressure, mean difference [14]: 1.6 mm Hg
delta pulse rate, mean difference (25 mg without donepezil vs placebo without donepezil): −3.7 bpm
number of AEs in gastrointestinal disorders class, viral gastroenteritis AEs excluded (25 mg+donepezil): 4 AEs
laboratory tests, ECG assessment and 24-hour Holter ECG (15 or 25 mg, with and without donepezil): No clinically significant changes
standing systolic BP, supine and standing diastolic BP, standing-supine BP, standing pulse rate (HTL0018318 in combination with donepezil vs HTL0018318 alone): no significant changes
VAS alertness, calmness, mood, and nausea (HTL0018318 in combination with donepezil vs without donepezil): no statistically significant effects
intensity and seriousness of AEs (all treatments of the study): mild or moderate in intensity and there were no serious adverse events
tolerability (multiple doses in combination with donepezil): generally well tolerated
